According to ChEMBL document CHEMBL1159158, “Cyclic urea HIV protease inhibitors containing alkynyl- and alkenyl-tethered heterocycles in the P2 region” (Bioorg Med Chem Lett, 1996):

Molecular target: T1, Human immunodeficiency virus type 1 protease (Human immunodeficiency virus 1, UniProt Q72874)
Assay: Binding affinity to HIV-protease

`CC(C)(C)OC(=O)n1cc(C#CCN2C(=O)N(CC#Cc3cnn(C(=O)OC(C)(C)C)c3)[C@H](Cc3ccccc3)[C@H](O)[C@@H](O)[C@H]2Cc2ccccc2)cn1` and `CC(C)(C)OC(=O)n1cc(C#CCN2C(=O)N(CC#Cc3cnn(C(=O)OC(C)(C)C)c3)[C@H](Cc3ccccc3)[C@@H]3OC(C)(C)O[C@H]3[C@H]2Cc2ccccc2)cn1` cannot be ordered by Ki: at least 1 µM for the first, at least 1 µM for the second.

`O=C1N(CC#CCN2CCOCC2)[C@H](Cc2ccccc2)[C@H](O)[C@@H](O)[C@@H](Cc2ccccc2)N1CC#CCN1CCOCC1` and `O=C1N(CC#CCN2CCCCC2)[C@H](Cc2ccccc2)[C@H](O)[C@@H](O)[C@@H](Cc2ccccc2)N1CC#CCN1CCCCC1` cannot be ordered by Ki: at least 1 µM for the first, at least 1 µM for the second.

`O=C1N(CC#Cc2cc3ccccc3cn2)[C@H](Cc2ccccc2)[C@H](O)[C@@H](O)[C@@H](Cc2ccccc2)N1CC#Cc1cc2ccccc2cn1` and `CC1(C)O[C@@H]2[C@@H](O1)[C@@H](Cc1ccccc1)N(CC#Cc1cc3ccccc3cn1)C(=O)N(CC#Cc1cc3ccccc3cn1)[C@@H]2Cc1ccccc1` cannot be ordered by Ki: at least 1 µM for the first, at least 1 µM for the second.

Compared with `C#CCN1C(=O)N(CC#C)[C@H](Cc2ccccc2)[C@@H]2OC(C)(C)O[C@H]2[C@H]1Cc1ccccc1`, `CC1(C)O[C@@H]2[C@@H](O1)[C@@H](Cc1ccccc1)N(CC#Cc1cccs1)C(=O)N(CC#Cc1cccs1)[C@@H]2Cc1ccccc1` is higher in Ki: 0.022 µM for the first, at least 1 µM for the second. The first binds more tightly here.

`CC(C)(C)OC(=O)C1CCCN1CC#CCN1C(=O)N(CC#CCN2CCCC2C(=O)OC(C)(C)C)[C@H](Cc2ccccc2)[C@H](O)[C@@H](O)[C@H]1Cc1ccccc1` (stereo partly drawn) and `CCN(CC)CC#CCN1C(=O)N(CC#CCN(CC)CC)[C@H](Cc2ccccc2)[C@H](O)[C@@H](O)[C@H]1Cc1ccccc1` cannot be ordered by Ki: at least 1 µM for the first, at least 1 µM for the second.

`CC1(C)O[C@@H]2[C@@H](O1)[C@@H](Cc1ccccc1)N(CC#Cc1ccsc1)C(=O)N(CC#Cc1ccsc1)[C@@H]2Cc1ccccc1` and `O=C1N(CC#Cc2ccsc2)[C@H](Cc2ccccc2)[C@H](O)[C@@H](O)[C@@H](Cc2ccccc2)N1CC#Cc1ccsc1` cannot be ordered by Ki: at least 1 µM for the first, at least 1 µM for the second.

`CC(C)N(CC#CCN1C(=O)N(CC#CCN(C(C)C)C(C)C)[C@H](Cc2ccccc2)[C@H](O)[C@@H](O)[C@H]1Cc1ccccc1)C(C)C` and `O=C1N(CC#Cc2cn[nH]c2)[C@H](Cc2ccccc2)[C@H](O)[C@@H](O)[C@@H](Cc2ccccc2)N1CC#Cc1cn[nH]c1` cannot be ordered by Ki: at least 1 µM for the first, at least 1 µM for the second.

`COCCOCn1cc(C#CCN2C(=O)N(CC#Cc3cnn(COCCOC)c3)[C@H](Cc3ccccc3)[C@@H]3OC(C)(C)O[C@H]3[C@H]2Cc2ccccc2)cn1` and `COCCOCn1cc(C#CCN2C(=O)N(CC#Cc3cnn(COCCOC)c3)[C@H](Cc3ccccc3)[C@H](O)[C@@H](O)[C@H]2Cc2ccccc2)cn1` cannot be ordered by Ki: at least 1 µM for the first, at least 1 µM for the second.

`O=C1N(CC#Cc2cncnc2)[C@H](Cc2ccccc2)[C@H](O)[C@@H](O)[C@@H](Cc2ccccc2)N1CC#Cc1cncnc1` and `CC1(C)O[C@@H]2[C@@H](O1)[C@@H](Cc1ccccc1)N(CC#Cc1cncnc1)C(=O)N(CC#Cc1cncnc1)[C@@H]2Cc1ccccc1` cannot be ordered by Ki: at least 1 µM for the first, at least 1 µM for the second.

`CC1(C)O[C@@H]2[C@@H](O1)[C@@H](Cc1ccccc1)N(CC#Cc1cn[nH]c1)C(=O)N(CC#Cc1cn[nH]c1)[C@@H]2Cc1ccccc1` and `CC1(C)O[C@@H]2[C@@H](O1)[C@@H](Cc1ccccc1)N(CC#Cc1cccnc1)C(=O)N(CC#Cc1cccnc1)[C@@H]2Cc1ccccc1` cannot be ordered by Ki: at least 1 µM for the first, at least 1 µM for the second.

`O=C1N(CC#Cc2cccs2)[C@H](Cc2ccccc2)[C@H](O)[C@@H](O)[C@@H](Cc2ccccc2)N1CC#Cc1cccs1` and `O=C1N(CC#Cc2cccnc2)[C@H](Cc2ccccc2)[C@H](O)[C@@H](O)[C@@H](Cc2ccccc2)N1CC#Cc1cccnc1` cannot be ordered by Ki: at least 1 µM for the first, at least 1 µM for the second.

`CC1(C)O[C@@H]2[C@@H](O1)[C@@H](Cc1ccccc1)N(CC#Cc1cnc3ccccc3c1)C(=O)N(CC#Cc1cnc3ccccc3c1)[C@@H]2Cc1ccccc1` and `O=C1N(CC#Cc2cnc3ccccc3c2)[C@H](Cc2ccccc2)[C@H](O)[C@@H](O)[C@@H](Cc2ccccc2)N1CC#Cc1cnc2ccccc2c1` cannot be ordered by Ki: at least 1 µM for the first, at least 1 µM for the second.

Molecular target: Human immunodeficiency virus type 1 protease (Human immunodeficiency virus 1) (UniProt Q72874)
Assay: Compound was evaluated for its antiviral activity against HIV-Protease in cell based assay.

Compared with `O=C1N(C/C=C/c2cn[nH]c2)[C@H](Cc2ccccc2)[C@H](O)[C@@H](O)[C@@H](Cc2ccccc2)N1CC1CC1`, `O=C1N(C/C=C/c2cn[nH]c2)[C@H](Cc2ccccc2)[C@H](O)[C@@H](O)[C@@H](Cc2ccccc2)N1C/C=C/c1cn[nH]c1` is 2.2-fold lower in IC90: 0.82 µM for the first, 0.37 µM for the second.

Molecular target: T1, Human immunodeficiency virus type 1 protease
Assay: Compound was evaluated for binding affinity towards HIV-Protease enzyme.

First: O=C1N(C/C=C/c2cn[nH]c2)[C@H](Cc2ccccc2)[C@H](O)[C@@H](O)[C@@H](Cc2ccccc2)N1CC1CC1
Second: O=C1N(C/C=C/c2cn[nH]c2)[C@H](Cc2ccccc2)[C@H](O)[C@@H](O)[C@@H](Cc2ccccc2)N1C/C=C/c1cn[nH]c1
The Ki of the first is 1.6-fold higher: 0.00041 µM for the first, 0.00025 µM for the second. The second binds more tightly here.
